Experimental findings from patent US20080255121A1, “Combination Drug for Treating Autoimmune Disease” (DAINIPPON SUMITOMO PHARMA CO., LTD., priority 2004, published 2008) are described below.

One assay concerns osteoclasts. The assay can be described thus: Formation of osteoclasts from cells of collagen arthritis mouse leg (TRAP staining). The class given is cell-based. As to conditions: Compound (I) 0.5 to 20 μM, KN-93 0.3 to 5 μM; nine days; FIG. 5. On the procedure:
Effects of Compound (I) and KN-93 on the formation of osteoclasts were evaluated.
A mouse leg affected with developed collagen arthritis was removed and treated in an α-MEM culture medium (GIBCO, Inc.) containing 10% fetal bovine serum in the presence of dispase (Godo Shuzo) and collagenase S1 (Nitta Gelatin Inc.) at 37° C. for five to six hours and monodisperse cell suspended liquid was collected. This sample was centrifuged, rinsed by resuspension and subjected to the experiment. The cells were disseminated in 96-well plate in a ratio of 2×10^4 cells/well, an α-MEM medium containing the test compound was added thereto and incubated for nine days. After the incubation, osteoclasts were stained with a kit (Sigma, Inc.) for TRAP staining and the number of the osteoclasts per well was measured by microscopic observation. The TRAP staining was carried out in accordance with instructions attached to the kit.

The test system of a further assay is J774A.1 cells. The assay is described as follows: IL-6 production when macrophages were stimulated with LPS. The assay is classed as cell-based, mouse. The settings on record: Compound (I) 1 to 30 μM, KN-93 1 to 3 μM; 24 hours; FIG. 2. As for the experimental part:
Effects of Compound (I) and KN-93 on IL-6 production when macrophages were stimulated with lipopolysaccharide (LPS) were evaluated.
J774A.1 cells (mouse macrophage cell line) were cultured in Dulbecco's Modified Eagle Medium (DMEM: GIBCO, Inc.) containing 10% fetal bovine serum and subjected to the experiment. The cells were disseminated in 96-well plate in a ratio of 5×10^4 cells/well and a DMEM medium containing the test substance and a DMEM medium containing LPS as a stimulant were added and incubated for 24 hours. The concentration was adjusted so that the final concentrations of the test substances and stimulants were 1 to 30 μM for Compound (I), 1 to 3 μM for KN-93 and 1 μg/ml for LPS. The plate was centrifuged after incubation and the supernatant was collected with micropipette. The concentration of IL-6 in the supernatant was quantified by Enzyme-linked Immunosorbent Assay (ELISA) method. The quantitative method was carried out in accordance with the instructions attached to the kit (MOUSE IL-6 Immunoassay, R & D Systems).

Another assay concerns SW982 cells. The assay is described as follows: Proliferation of human synovial cells (Alamar Blue). The class given is cell-based. The settings on record: Compound (I) 1 to 30 μM, KN-93 1 to 30 μM; FIG. 4. As for the experimental part:
Effects of Compound (I) and KN-93 on the proliferation of SW982 cells (human synovial cell line) were evaluated.
SW982 cells (human synovial cell line; obtained from ATCC) was cultured in a FCS (product of SIGMA, Inc.) containing DMEM medium (product of GIBCO, Inc.) and subjected to the experiment. SW982 was disseminated in 96-well flat bottom plate in the absence of serum in a ratio of 4×10^4 cells/well. Compounds were added at the same time of the dissemination of the cells and incubated at 200 μl cells/well. 20 μl of Alamar Blue® was added to each well (BIOSOURCE, Inc.) after 18 hours and incubated for further six hours and the absorbance of each well was measured with a microplate reader. The absorbance was measured at two wavelengths of 570 nm and 600 nm.
In general terms: The colour change of resazurin is a common sign of viable cells or microbes.

The next assay deals with Akt. The assay is described as follows: Phosphorylation of Akt in bFGF stimulated fibroblasts (Western blotting). The class given is cell-based, mouse. As to conditions: Compound (I) 20 μM, KN-93 20 μM; L929 cells; FIG. 19. On the procedure: (§1) Effects of Compound (I) and KN-93 on effect on the expression of cyclin D1 and the phosphorylation of Akt when fibroblasts were stimulated with basic fibroblast growth factor (bFGF) were evaluated.
(§2) L929 cells (mouse fibroblast cell line) were cultured in MEM-Earl medium (E-MEM: GIBCO, Inc.) containing 10% fetal bovine serum and subjected to the experiment. The cells were suspended in a serum-free E-MEM and cultured for 72 hours. An E-MEM medium containing the test substance was added and incubated for 1 hour, and an E-MEM medium containing recombinant human FGF basic (bFGF) as a stimulant was added and further incubated. The cells were lysed in a RIPA buffer and a total cell lysate was obtained. After performing SDS-PAGE, proteins were transferred onto a PVDF membrane and western blotting was performed with anti-cyclin antibody or anti-Akt antibody (both available from Santa Cruz, Inc.).

In the next assay the test system is cyclin D1. The assay is described as follows: Expression of cyclin D1 in bFGF stimulated fibroblasts (Western blotting). The class given is cell-based, mouse. As to conditions: Compound (I) 1.25 to 20 μM, KN-93 5 to 20 μM; L929 cells; FIG. 18. As for the experimental part: as §1, §2
(In western blotting, separated proteins are transferred to a membrane and probed.)

In a further assay the test system is EL-4 cells. The assay is described as follows: IL-2 production when T-lymphocytes were stimulated with PMA and A23187. The class given is cell-based, mouse. The settings on record: Compound (I) 1 to 30 μM, KN-93 1 to 10 μM; 20 hours; FIG. 1. As for the experimental part: Effects of Compound (I) and KN-93 on IL-2 production when T-lymphocytes were stimulated with Phorbol 12-myristate 13-acetate (PMA) and Calcium Ionophore A23187 were evaluated.
EL-4 cells (mouse T-lymphocyte cell line) were cultured in Dulbecco's Modified Eagle Medium (DMEM: GIBCO, Inc.) containing 10% fetal bovine serum and subjected to the experiment. The cells were disseminated in 96-well plate in a ratio of 5×10^4 cells/well and a DMEM medium containing the test substance and a DMEM medium containing PMA and A23187 as a stimulant were added and incubated for 20 hours. The concentration was adjusted so that the final concentrations of the test substances and stimulants were 1 to 30 μM for Compound (I), 1 to 10 μM for KN-93, 25 ng/ml for PMA and 250 ng/ml for A23187. The plate was centrifuged after incubation and the supernatant was collected with micropipette. The concentration of IL-2 in the supernatant was quantified by Enzyme-linked Immunosorbent Assay (ELISA) method. The quantitative method was carried out in accordance with the instructions attached to the kit (MOUSE IL-2 Immunoassay, R & D Systems).

Entries after “also recorded” stand apart in the source; their conditions may differ.

Consider `C[C@@H](c1ccc(-c2ccccc2)c(F)c1)c1cc(/N=C(/N)N2CCOCC2)on1` [Compound (I), 3-[(1S)-1-(2-fluorobiphenyl-4-yl)ethyl]-5-{[amino(morpholin-4-yl)methylene]amino}isoxazole], for which the formation of osteoclasts entry in the assay with osteoclasts was “dose-dependently suppressed the formation of osteoclasts”. In addition, the “production of IL-6” value in the assay with J774A.1 cells is “suppressed production of IL-6 dose-dependently”. Also, the “proliferation of SW982 cells” value in the assay on SW982 cells is given as “dose-dependently suppressed the proliferation of human synovial cells; also recorded: almost completely suppressed”. Also, the “phosphorylation of Akt” value in the assay on Akt is “suppressed the phosphorylation of Akt”. In the assay with cyclin D1, the “enhanced expression of cyclin D1” value is “suppressed the enhanced expression of cyclin D1”. Also, the “production of IL-2” value in the assay with EL-4 cells is reported as “suppressed production of IL-2 dose-dependently”.

As to `COc1ccc(S(=O)(=O)N(CCO)c2ccccc2CN(C)C/C=C/c2ccc(Cl)cc2)cc1` [KN-93, N-(2-[N-[4-chlorocinnamyl]-N-methylaminomethyl]phenyl)-N-(2-hydroxyethyl)-4-methoxybenzenesulfonamide, reference compound], the formation of osteoclasts entry in the assay on osteoclasts is listed as “dose-dependently suppressed the formation of osteoclasts”. For the same compound, the “production of IL-6” value in the assay on J774A.1 cells is “suppressed production of IL-6 dose-dependently”. Also, the “proliferation of SW982 cells” value with SW982 cells was “dose-dependently suppressed the proliferation of human synovial cells; also recorded: almost completely suppressed”. For the same compound, the “phosphorylation of Akt” value in the assay with Akt is reported as “suppressed the phosphorylation of Akt”. The “enhanced expression of cyclin D1” value with cyclin D1 is recorded as “suppressed the enhanced expression of cyclin D1”. Further, the “production of IL-2” value with EL-4 cells is listed as “suppressed production of IL-2 dose-dependently”.
